In PubChem BioAssay (NCI):
Where “and” joins values, the source holds several entries; their conditions need not be identical. Equal entries are not always repeated.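 In this assay, cells in 96-well plates receive the compound at five concentrations for 48 hours. Endpoints are linearly interpolated between the surrounding concentrations. GI50 = concentration required for 50% inhibition of growth. TGI denotes the concentration required for complete inhibition of growth.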

Columns and labels:
Assay in all cases: inhibition of tumour cell growth, NCI panel, 48 h
[1] = system: HOP-62 NSCLC
[2] = system: KM12 colon
[3] = system: HCT-15 colon
[4] = system: UACC-257 melanoma
[5] = system: K-562 leukemia
[6] = system: NCI-H522 lung
[7] = system: SK-MEL-2 melanoma
[8] = system: MALME-3M melanoma
[9] = system: MCF7 breast
[10] = system: SW-620 colon

Compound	GI50 [1]	TGI [1]	GI50 [2]	TGI [2]	GI50 [3]	TGI [3]	GI50 [4]	TGI [4]	GI50 [5]	TGI [5]	GI50 [6]	TGI [6]	GI50 [7]	TGI [7]	GI50 [8]	TGI [8]	GI50 [9]	TGI [9]	GI50 [10]	TGI [10]
COc1ccc(OC)c(NC(=O)c2cccc(NC3=C(Cl)C(=O)N(Cc4ccccc4)C3=O)c2)c1	> 83.5 µM	> 100 µM	> 100 µM	> 100 µM	> 100 µM	> 100 µM	23.5 µM	> 100 µM	35.4 µM	> 100 µM	> 100 µM	> 100 µM	> 100 µM	> 100 µM	> 49.3 µM	> 86.4 µM	> 48.2 µM	> 100 µM	> 100 µM	> 100 µM
CCCCCCCN(CCCCCCC)C(=N)c1ccnc2ccccc12	1.16 µM	2.65 µM	1.82 µM	3.49 µM	1.59 µM	3.04 µM	1.72 µM	3.5 µM	1.27 µM	3.48 µM	1.65 µM	3.41 µM	1.71 µM	3.35 µM	1.62 µM	3.37 µM	1.71 µM	3.32 µM	1.28 µM	2.91 µM
c1cc(CN2CCCNCCNCCCNCC2)ccc1CN1CCCNCCNCCCNCC1	> 100 µM	> 100 µM	> 100 µM	> 100 µM	> 100 µM	> 100 µM	> 100 µM	> 100 µM	> 100 µM	> 100 µM	> 100 µM	> 100 µM	> 100 µM	> 100 µM	> 100 µM	> 100 µM	> 100 µM	> 100 µM	> 100 µM	> 100 µM
C=C(C)[C@@H]1C/C=C(/CO)CC[C@H]2O[C@]2(C)CC/C=C(\C)CC1	15 µM	34.4 µM	16.1 µM	32.4 µM	23.6 µM	51.7 µM	22 µM	43.6 µM	5.73 µM	26.1 µM	16.1 µM	32.1 µM	15.3 µM	31.3 µM	12.9 µM	28.5 µM	15.7 µM	31.8 µM	26.3 µM	61.5 µM
Nc1ncn(C2OC(COP(=O)(O)O)C(O)C2O)c(=O)n1 (configuration not stated)	–	> 100 µM	–	> 100 µM	–	> 100 µM	–	> 100 µM	–	> 100 µM	–	> 100 µM	–	> 100 µM	–	> 100 µM	–	> 100 µM	–	> 100 µM
O=C(Nc1ccc2ncnc(Nc3ccc(Oc4cccc(F)c4)c(Cl)c3)c2c1)c1ccc(CN2CCOCC2)cc1	2.58 µM	8.47 µM	2.57 µM	7.66 µM	2.49 µM	8.85 µM	2.36 µM	7.1 µM	2.47 µM	11.7 µM	0.654 µM	4.01 µM	2.27 µM	5.46 µM	2.01 µM	5.2 µM	1.83 µM	5.64 µM	3.21 µM	11.2 µM
COc1cc(OC)c(/C=C/C(=O)c2ccc(Nc3ncnc4ccccc34)cc2)c(OC)c1	0.966 µM	2.32 µM	0.51 µM	> 43.9 µM	0.798 µM	24.8 µM	1.24 µM	3.89 µM	–	–	0.296 µM	1.44 µM	1.01 µM	7.36 µM	0.799 µM	2.65 µM	0.449 µM	2.59 µM	0.403 µM	2.64 µM
COc1cc(-c2nn(-c3cccc(NC(=O)NCCNS(=O)(=O)c4ccc(Cl)cc4)c3)cc2-c2ccncc2)ccc1Cl	1.08 µM	33 µM	0.456 µM	2.41 µM	2.45 µM	8.55 µM	0.541 µM	3.34 µM	–	–	0.311 µM	1.35 µM	0.629 µM	2.81 µM	0.588 µM	2.87 µM	0.363 µM	> 100 µM	0.524 µM	30.3 µM
C/C(=N\NC(=O)CC#N)C(CN1CCCCC1)C(c1ccccc1)c1c(O)c2ccccc2oc1=O (configuration not stated)	–	–	–	> 100 µM	–	> 100 µM	–	> 100 µM	–	> 100 µM	–	> 100 µM	–	> 100 µM	–	> 100 µM	–	40.6 µM	–	> 100 µM
O=C1C=C2C=CC3CC2(O1)C1CCCCN31 (configuration not stated)	–	–	–	70.7 µM and 28.5 µM and 57.6 µM	11.4 µM and 11.8 µM and 31 µM	46.4 µM and 29.4 µM and > 100 µM	25 µM and 13.8 µM and 86.8 µM	> 100 µM and 66.7 µM	–	> 100 µM and 41.8 µM	10.1 µM and 11.1 µM and 32.8 µM	28.1 µM and 32.4 µM and > 100 µM	–	> 100 µM and 44.5 µM and 94.4 µM	–	44.4 µM	15.3 µM and 16.8 µM and 32.6 µM	70.4 µM and 39.5 µM and > 100 µM	16.9 µM and 13.7 µM and 38 µM	42.4 µM and 39 µM and > 100 µM
CCC#CC[C@H](O)C/C=C1/C(=O)C=C[C@@H]1C/C=C\CCCC(=O)OC	1.56 µM	4.49 µM	–	–	1.17 µM	5.09 µM	0.856 µM	2.43 µM	1.13 µM	50 µM	0.673 µM	1.68 µM	0.995 µM	2.76 µM	1.88 µM	8.42 µM	0.297 µM	7.01 µM	1.49 µM	4.83 µM
